Results on nine compounds are retold here after patent US20260001914A1, “MACROCYCLIC PEPTIDES TARGETING KRAS” (Merck Sharp & Dohme LLC, priority 2022, published 2026).

*1 amine or outer side, *2 acyl side, *3 side chain or, on linkers, in order; H or OH if unused. Where a SMILES comes first, the peptide text is derived from it. Bridges are numbered along the chain shown (N, C = ends). [ ]: non-standard residue; d: D form. NMeNva(5-imidazol-1-yl) = CN[C@@H](CCCn1ccnc1)C(=O)O; X82 = CS(=O)(=O)c1ncc(C[C@H](N[*:1])C(=O)[*:2])cn1; Ala(pyrimidin-5-yl) = N[C@@H](Cc1cncnc1)C(=O)O; Phe(4-CH2NH2) = NCc1ccc(C[C@H](N)C(=O)O)cc1; X39 = CN([C@@H](Cc1cccnc1F)C(=O)[*:2])[*:1]; Lys(N3) = [N-]=[N+]=NCCCC[C@H](N)C(=O)O; Phe(4-F) = N[C@@H](Cc1ccc(F)cc1)C(=O)O; 1Nal = N[C@@H](Cc1cccc2ccccc12)C(=O)O; NHCH2CH2SCH2CO = O=C(CSCCN[*:1])[*:2]; Phe(2-F) = N[C@@H](Cc1ccccc1F)C(=O)O; NMe3Pal = CN[C@@H](Cc1cccnc1)C(=O)O; X1 = O=C(C12CC(CN[*:1])(C1)C2)[*:2]; X41 = COCCC[C@H](N[*:1])C(=O)[*:2]; Ala(cPr) = N[C@@H](CC1CC1)C(=O)O; NMeF = CN[C@@H](Cc1ccccc1)C(=O)O; PhLac = O=C(O)[C@@H](O)Cc1ccccc1; 3Pal = N[C@@H](Cc1cccnc1)C(=O)O; d(αMeC) = C[C@@](N)(CS)C(=O)O; Cba = N[C@@H](CC1CCC1)C(=O)O; hLeu = CC(C)CC[C@H](N)C(=O)O; NMeAbu = CC[C@H](NC)C(=O)O; αMeC = C[C@](N)(CS)C(=O)O; NMeA = CN[C@@H](C)C(=O)O; Nle = CCCC[C@H](N)C(=O)O

Chain of KRAS-G12D protein (P01116 1-188 isoform P01116-2 G12D): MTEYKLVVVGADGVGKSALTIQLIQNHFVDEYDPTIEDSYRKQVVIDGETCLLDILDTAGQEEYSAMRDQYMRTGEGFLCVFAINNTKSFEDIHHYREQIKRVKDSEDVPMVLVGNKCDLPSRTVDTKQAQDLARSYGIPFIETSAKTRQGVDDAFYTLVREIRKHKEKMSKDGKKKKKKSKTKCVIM

This assay addresses KRAS-G12D protein (Homo sapiens, UniProt P01116, G12D). Kind of assay: SOS-mediated nucleotide exchange assay (BODIPY-GDP / Tb-streptavidin TR-FRET). In kind it is biochemical. For orientation: Time-resolved FRET reads energy transfer from a long-lived donor to a nearby acceptor.
In general, EC50 refers to the concentration needed to bring the measured effect to its halfway point. As to `CCCC[C@@H]1NC(=O)[C@H](Cc2cnc(S(C)(=O)=O)nc2)NC(=O)[C@H](C)N(C)C(=O)[C@H](Cc2ccccc2)OC(=O)C23CC(CNC(=O)[C@H](Cc4ccccc4)N(C)C(=O)[C@H](CCCC)NC(=O)[C@H](Cc4ccccc4F)NC1=O)(C2)C3` [compound 313, cyclo(FLac-NMeA-AlaPyrim4SO2Me-Nle-Phe2F-Nle-NMeF-amBCP)] (cyclo([NMeA][X82][Nle][Phe(2-F)][Nle][NMeF][X1][PhLac])), the EC50 was 5.22 nM.
With `CCCC[C@@H]1NC(=O)[C@H](Cc2cccnc2)NC(=O)[C@H](CCCn2ccnc2)N(C)C(=O)[C@H](Cc2ccccc2)OC(=O)C23CC(CNC(=O)[C@H](Cc4ccccc4)N(C)C(=O)[C@H](CCCC)NC(=O)[C@H](Cc4ccccc4F)NC1=O)(C2)C3` [compound 233, cyclo(FLac-NMeNvalmid-3Pal-Nle-Phe2F-Nle-NMeF-amBCP)] (cyclo([3Pal][Nle][Phe(2-F)][Nle][NMeF][X1][PhLac][NMeNva(5-imidazol-1-yl)])), the midpoint of the response, the EC50, lay at 28.9 nM.
On to `CCCCC[C@@H]1NC(=O)[C@H](Cc2ccc(OC)cc2)NC(=O)[C@H](CC2CCC2)NC(=O)[C@H](Cc2ccc(-c3cccnc3N)cc2)NC(=O)[C@H](CCCNC(=N)N)NC(=O)[C@H](Cc2ccccc2)NC(=O)CSC[C@@](C)(C(N)=O)NC(=O)[C@H](Cc2ccccc2)N(C)C1=O` [compound 390, cyclo(F-R-Phe43PyNH2-cBuA-TyrOMe-Ahp-NMeF-aMeCl-ClAc)], for which the EC50 came to 9.17 nM.
Consider `CCCCC[C@@H]1NC(=O)[C@H](Cc2ccc(OC)cc2)NC(=O)[C@H](CC2CCC2)NC(=O)[C@H](Cc2cccnc2)NC(=O)[C@H](CCCNC(=N)N)NC(=O)[C@H](Cc2ccccc2F)NC(=O)CSC[C@@](C)(C(N)=O)NC(=O)[C@H](Cc2ccccc2)N(C)C1=O` [compound 370, cyclo(Phe2F-R-3Pal-cBuA-TyrOMe-Ahp-NMeF-aMeCl-ClAc)], for which a half-maximal effect (EC50) was put at 14.9 nM.
In turn, `CCCC[C@@H]1NC(=O)[C@H](Cc2ccc(CNC(C)=O)cc2)NC(=O)[C@H](CCCNC(=N)N)NC(=O)[C@H](Cc2cccc3ccccc23)NC(=O)CSC[C@](C)(C(=O)O)NC(=O)[C@H](Cc2ccccc2)N(C)C(=O)[C@H](CCCC)NC(=O)[C@H](Cc2ccc(O)cc2)NC1=O` [compound 145, cyclo(INal-R-Phe4CH2NHAc-Nle-Y-Nle-NMeF-daMeC-ClAc)] ({CH2CO}-[1Nal]R[Phe(4-CH2NH2)](Ac)[Nle]Y[Nle][NMeF][d(αMeC)]-OH; thioether N-8) showed an EC50 of 7030 nM.
`CC(C)CC[C@@H]1NC(=O)[C@H](Cc2ccccc2F)NC(=O)[C@H](CC2CC2)NC(=O)[C@H](Cc2cncnc2)NC(=O)[C@H](C)N(C)C(=O)[C@H](Cc2ccccc2)OC(=O)C23CC(CNC(=O)[C@H](Cc4cccnc4F)N(C)C1=O)(C2)C3` [compound 336, cyclo(FLac-NMeA-PyrimAla-cPrA-Phe2F-hL-NMe3Pal2F-amBCP)] (cyclo([Ala(cPr)][Phe(2-F)][hLeu][X39][X1][PhLac][NMeA][Ala(pyrimidin-5-yl)])): the response was half-maximal at 5 nM (EC50).
Regarding `CCCC[C@@H]1NC(=O)[C@H](CCCOC)NC(=O)[C@H](CC2CCC2)NC(=O)[C@H](Cc2cccnc2)NC(=O)[C@H](CCCNC(=N)N)NC(=O)[C@H](Cc2ccccc2)NC(=O)CSC[C@@](C)(C(N)=O)NC(=O)[C@H](Cc2ccccc2)N(C)C1=O` [compound 55, cyclo(F-R-3Pal-cBuA-NvaOMe-Nle-NMeF-aMeCl-ClAc)] ({CH2CO}-FR[3Pal][Cba][X41][Nle][NMeF][αMeC]-NH2; thioether N-8), the EC50 stood at 4410 nM.
`CCCC[C@@H]1NC(=O)[C@H](CCCCN=[N+]=[N-])NC(=O)[C@H](CCCNC(=N)N)NC(=O)[C@H](Cc2ccc(F)cc2)NC(=O)CSCCNC(=O)[C@H](Cc2ccccc2)N(C)C(=O)[C@H](CCCC)NC(=O)[C@H](Cc2ccc(O)cc2)NC1=O` [compound 89, cyclo(Phe4F-R-LysN3-Nle-Y-Nle-NMeF-Cysteamine-ClAc)] (cyclo([Lys(N3)][Nle]Y[Nle][NMeF][NHCH2CH2SCH2CO][Phe(4-F)]R)) came in with an EC50 of 3530 nM.
Compound `CCCC[C@@H]1NC(=O)[C@H](Cc2cccnc2)NC(=O)[C@H](CC)N(C)C(=O)[C@H](Cc2ccccc2)OC(=O)C23CC(CNC(=O)[C@H](Cc4cccnc4)N(C)C(=O)[C@H](CCCC)NC(=O)[C@H](Cc4ccccc4F)NC1=O)(C2)C3` [compound 404, cyclo(FLac-NMeAbu-3Pal-Nle-Phe2F-Nle-NMe3Pal-amBCP)] (cyclo([3Pal][Nle][Phe(2-F)][Nle][NMe3Pal][X1][PhLac][NMeAbu])) displayed an EC50 of 29 nM.
